Usually mortality stands for the share of the test organisms that died.

The source made the active and inactive calls. The rule behind the calls is not given here.

Test [1] deals with Lissorhoptrus oryzophilus. The experiment in a line: Insecticidal activity against Lissorhoptrus oryzophilus in rice plants assessed as mortality at 10 ug treated as seed measured after 72 hr of feeding (reference value: 15 +/- 2.9%). The class given is functional.
In test [2] the test system is Lissorhoptrus oryzophilus. Description: Insecticidal activity against Lissorhoptrus oryzophilus in rice plants assessed as mortality at 25 ug treated as seed measured after 72 hr of feeding (reference value: 15 +/- 2.9%). The class given is functional.
Test [3] deals with Lissorhoptrus oryzophilus. The experiment in a line: Insecticidal activity against Lissorhoptrus oryzophilus in rice plants assessed as leaf consumption rate per day at 50 ug treated as seed measured after 72 hr of feeding (reference value: 8.3 +/- 0.7 mm'2 /day). The class given is functional.
Test [4] concerns Lissorhoptrus oryzophilus. The experiment in a line: Insecticidal activity against Lissorhoptrus oryzophilus in rice plants assessed as leaf consumption rate per day at 100 ug treated as seed measured after 72 hr of feeding (reference value: 8.3 +/- 0.7 mm'2 /day). Type of test: functional.
Test [5] has as its system Lissorhoptrus oryzophilus. Description: Insecticidal activity against Lissorhoptrus oryzophilus in rice plants assessed as mortality at 50 ug treated as seed measured after 72 hr of feeding (reference value: 15 +/- 2.9%). The class given is functional.
The test system of test [6] is Lissorhoptrus oryzophilus. Description: Insecticidal activity against Lissorhoptrus oryzophilus in rice plants assessed as mortality at 100 ug treated as seed measured after 72 hr of feeding (reference value: 15 +/- 2.9%). The class given is functional.
Test [7] deals with Lissorhoptrus oryzophilus. The experiment in a line: Insecticidal activity against Lissorhoptrus oryzophilus in rice plants assessed as leaf consumption rate per day at 25 ug treated as seed measured after 72 hr of feeding (reference value: 8.3 +/- 0.7 mm'2 /day). The class given is functional.
The test system of test [8] is Lissorhoptrus oryzophilus. The experiment in a line: Insecticidal activity against Lissorhoptrus oryzophilus in rice plants assessed as leaf consumption rate per day at 10 ug treated as seed measured after 72 hr of feeding (reference value: 8.3 +/- 0.7 mm'2 /day). The class given is functional.
Test [9] concerns Lissorhoptrus oryzophilus. Description: Insecticidal activity against Lissorhoptrus oryzophilus in rice plants assessed as leaf consumption rate per day at 21 ug treated as seed measured after 72 hr of feeding (reference value: 8.3 +/- 0.5 mm'2 /day). The class given is functional.
The subject of test [10] is Lissorhoptrus oryzophilus. Description: Insecticidal activity against Lissorhoptrus oryzophilus in five to six-leaf stage rice plants assessed as mortality treated as seed measured after 72 hr of feeding. Type of test: functional, organism-based.
Test [11] concerns Lissorhoptrus oryzophilus. The experiment in a line: Insecticidal activity against Lissorhoptrus oryzophilus in rice plants assessed as leaf consumption rate per day at 28 ug treated as seed measured after 72 hr of feeding (reference value: 8.3 +/- 0.5 mm'2 /day). The class given is functional.
Test [12] concerns Lissorhoptrus oryzophilus. Description: Insecticidal activity against Lissorhoptrus oryzophilus in three to four-leaf stage rice plants assessed as mortality treated as seed measured after 72 hr of feeding. Type of test: functional.
In test [13] the test system is Lissorhoptrus oryzophilus. Description: Insecticidal activity against Lissorhoptrus oryzophilus in rice plants assessed as leaf consumption rate per day at 14 ug treated as seed measured after 72 hr of feeding (reference value: 8.3 +/- 0.5 mm'2 /day). The class given is functional.
Test [14] relates to Lissorhoptrus oryzophilus. The experiment in a line: Insecticidal activity against Lissorhoptrus oryzophilus in two to three-leaf stage rice plants assessed as mortality treated as seed measured after 72 hr of feeding. Type of test: functional.
Test [15] deals with Lissorhoptrus oryzophilus. The experiment in a line: Insecticidal activity against Lissorhoptrus oryzophilus in rice plants assessed as leaf consumption rate per day at 7 ug treated as seed measured after 72 hr of feeding (reference value: 8.3 +/- 0.5 mm'2 /day). The class given is functional.
In test [16] the test system is Lissorhoptrus oryzophilus. Description: Insecticidal activity against Lissorhoptrus oryzophilus in rice plants assessed as mortality at 14 ug treated as seed measured after 72 hr of feeding (reference value: 3.8 +/- 1.8%). Type of test: functional.
In test [17] the test system is Lissorhoptrus oryzophilus. Description: Insecticidal activity against Lissorhoptrus oryzophilus in rice plants assessed as mortality at 21 ug treated as seed measured after 72 hr of feeding (reference value: 3.8 +/- 1.8%). Type of test: functional.
The test system of test [18] is Lissorhoptrus oryzophilus. The experiment in a line: Insecticidal activity against Lissorhoptrus oryzophilus in rice plants assessed as mortality at 7 ug treated as seed measured after 72 hr of feeding (reference value: 3.8 +/- 1.8%). The class given is functional.
Test [19] deals with Lissorhoptrus oryzophilus. Description: Insecticidal activity against Lissorhoptrus oryzophilus in rice plants assessed as mortality at 28 ug treated as seed measured after 72 hr of feeding (reference value: 3.8 +/- 1.8%). Type of test: functional.
Test [20] deals with Lissorhoptrus oryzophilus. The experiment in a line: Insecticidal activity against Lissorhoptrus oryzophilus in rice plants assessed as mortality at 35 ug treated as seed measured after 72 hr of feeding (reference value: 3.8 +/- 1.8%). The class given is functional.
Test [21] relates to Lissorhoptrus oryzophilus. The experiment in a line: Insecticidal activity against Lissorhoptrus oryzophilus in rice plants assessed as leaf consumption rate per day at 35 ug treated as seed measured after 72 hr of feeding (reference value: 8.3 +/- 0.5 mm'2 /day). Type of test: functional.

On to `CNC(=O)c1cc(Cl)cc(C)c1NC(=O)c1cc(Br)nn1-c1ncccc1Cl` [CHLORANTRANILIPROLE], for which the mortality in test [1] is on record as 10%; in [2] it was 20%; in [5], 12.5%; in [6], 16.3%. Also, the Activity was 7.3 mm2 in test [3], 9.4 mm2 in [4], 6.7 mm2 in test [7] and 8.3 mm2 in test [8].
Regarding `CN1COCN(Cc2cnc(Cl)s2)/C1=N\[N+](=O)[O-]` [THIAMETHOXAM], the Activity in test [9] is reported as 5.5 mm2; in test [11] it was 5.2 mm2; in test [13] it was 6.6 mm2; in [15] it was 6.9 mm2; in test [21] it was 6.4 mm2. Further, the outcome in test [10] was Active. Besides, the LC50 in test [12] was determined as 142 pg; in [14] it was 447 pg. Also, the mortality was determined as 21.3% in [16]; 28.8% in test [17]; 22.5% in test [18]; 42.5% in [19]; 45% in test [20].

These data come from ChEMBL document CHEMBL3046088, “Systemic effects of thiamethoxam and chlorantraniliprole seed treatments on adult Lissorhoptrus oryzophilus (Coleoptera: Curculionidae) in rice” (2013).
